The record followed here is patent US20160355782A1, “METHOD FOR ENHANCING DIFFERENTIATION OF DOPAMINERGIC NEURONS” (Buddhist Tzu Chi Medical Foundation, priority 2015, published 2016).

The subject of assay [1] is TH promoter in Nurr1-transfected cortical NPCs. Put plainly: TH promoter assay (pAAV-Nurr1 and pTH6.0-GL3) in cortical NPCs. The note with it: 24 hours. It counts as cell-based, rat. From the text:
The luciferase reporter vector pTH6.0-GL3 constructed by engineering the 6.0 kb upstream sequences of the rat TH (TH6.0) gene into pGL3 was kindly provided by Dr. Kwang-Soo Kim (Harvard Medical School, Belmont, Mass.). Vector expressing Nurr1 (mouse) was constructed by inserting the respective cDNA into pAAV-MCS vector (pAAV-Nurr1), in which the cloned gene is designed to be expressed under the control of the cytomegalovirus (CMV) immediate-early promoter. pTH6.0-GL3 alone or combined with pAAV-Nurr1 were transfected into a human neuro-blastoma SH-SY5Y cell line or cortical NPCs, respectively, using Lipofectamine 2000 (Invitrogen) according to the protocol of the manufacturer. For determine the effect of MeCP2-CoREST-HDAC1 repressor complex on TH promoter activity, the SH-SY5Y cells were double transfected with pTH6.0-GL3 and pCMV6-Entry-Mecp2 (Flag-tagged MeCP2)/or pCMV6-Entry-Rcor1 (Flag-tagged CoREST) (both from OriGene Technologies, Rockville, Md.)/or pK7-HDAC1-GFP (Addgene). […] Luciferase activity of cell lysates was determined luminometrically by the luciferase assay system (Promega, Madison, Wis.) as specified by the manufacturer. Luciferase activity was normalized to the protein content of the extracts. Relative luciferase activity was determined to reflect promoter activity of TH, expressed as the fold increase relative to the activity of control or untreated mock control.

Assay [2] has as its system cortical neural precursor cells (NPCs). Nature of the assay: TH+ cell differentiation of lentivirus-transduced (Nurr1 or GFP) cortical NPCs. Type of assay: cell-based, rat. Here is the method: Cultures of neural precursor cells (NPCs) derived from cortices at E13.5 were performed as the methods known by a person skilled in the art, for example, as the protocol described by Huang et al. (2012) and carried out with some modifications. Briefly, dissected cortical tissues were mechanically triturated and plated at 5×10^4 cells on coverslips (12-mm diameter) pre-coated with 20 μg/mL fibronectin (Invitrogen)/15 μg/mL poly-L-ornithine (Sigma-Aldrich) in 24 well plates. Cells were cultured in a serum-free NPCs culture medium containing DMEMF12, 2% B27 supplement (Invitrogen), 0.6% glucose, 20 ng/mL bFGF (Sigma-Aldrich), 20 ng/mL EGF (Invitrogen), 2 μg/mL heparin (Sigma-Aldrich), 100 U/mL penicillin, and 100 μg/mL streptomycin.
TH promoter assay or lenti-virial transductions were carried out at 60%˜70% cell confluences (usually for 3 days) as described below. Cell differentiation was induced for 3 to 5 days by switching to mitogens-free DMEM/F12/N2 medium in the presence of 0.5 μM UCN. Differentiation medium was changed every other day.
For lenti-viral transduction, E13 cortical NPCs were incubated with lenti-viruses (25 multiplicity of infection) expressing Nurr1 or GFP containing poly-brene (hexadimethrine bromide, 1 μg/mL, Sigma-Aldrich) for 24 hours. After 1 day of further cell expansion in the presence of the mitogens, cells were induced to differentiate.
For immuno-cytochemistry, cells were fixed with 4% paraformaldehyde followed by blocking with PBS containing 0.4% Triton X-100, 3% normal goat serum and 2% bovine serum albumin (BSA) for 1 h at room temperature. After blocking, cells were incubated overnight at room temperature with primary antibodies. Primary antibodies were rabbit anti-UCN (1:200), mouse anti-TH (1:2000) (both from Sigma-Aldrich), goat anti-CRHR1 (1:100), rabbit anti-CRHR2 (1:250), rat anti-dopamine transporter (DAT, 1:200), chicken anti-MAP2 (1:5000) (all from Abcam, Cambridge, Mass.), rabbit anti-Nurr1 (1:100, Santa Cruz Biotechnology), mouse anti-Nurr1 (1:100, R&D Systems, Minneapolis, Minn.), rabbit anti-TH (1:1000), mouse anti-NeuN (1:200) (both from Chemicon, Temecula, Calif.), rabbit anti-acetyl-histone H3 (1:1000, Upstate Biotechnology, Lake Placid, N.Y.), rabbit anti-Foxa2 (1:500, Cell Signaling Technology), and rabbit anti-Pitx3 (1:100, Invitrogen).
For detection of dopaminergic neurons, the bound anti-TH antibody was visualized by incubation with an appropriate biotinylated secondary antibody followed by the Vectastain avidin-biotin-peroxidase (ABC) reagents (Vector Laboratories, Burlingame, Calif.) and color development with 3,3′-diaminobenzidine. The number of TH-positive neurons were counted in the entire surface area of a culture well or coverslip. For fluorescent double-labeling experiments, cells were incubated for 1 h at room temperature with rhodamine-conjugated donkey anti-mouse IgG (1:250), FITC-conjugated goat anti-rabbit IgG (1:250) or FITC-conjugated donkey anti-goat IgG (1:200) secondary antibodies (all from Jackson Immuno Research, West Grove, Pa.). Samples were counter-stained with Hoechst 33342 (5 μg/mL, Sigma-Aldrich) or DAPI (1 μg/mL), and mounted with 50% glycerol in PBS. Microscopic observations were done with a Zeiss Axiovert 200 M fluorescent microscope or a Zeiss LSM 510 META confocal imaging system (Carl Zeiss, Oberkochen, Germany). Immuno-reactive or Hoechst 33342-stained cells were counted in at least 10 random areas of each culture coverslip at a magnification of 100×.

The test system of a further assay is rat TH promoter. Nature of the assay: Chromatin immuno-precipitation (ChIP) at the TH promoter in VM precursor cultures. Type of assay: cell-based. Here is the method:
VM precursor cultures were treated with 1 μM UCN for about 1 to 2 days. VM cells for ChIP from rat embryos, the pregnant rats on day 12.5 of gestation were intra-peritoneally injected with saline as control or 10 μg/kg UCN as treatment every 24 h for 3 days before sacrifice. The ventral mesencephalon from E15.5 embryos was dissected. Cells were cross-linked with 1% formaldehyde, and stored at −80° C. before use.
Chromatin immuno-precipitation (ChIP) assays were performed using SimpleChIP® Enzymatic Chromatin IP kit (Cell Signaling Technology, Beverly, Mass.) by the instruction of the kit. Briefly, cross-linked chromatin in the cells was enzymatic digested to generate fragments with a length of approximately 150-900 bp (1 to 5 nucleosomes). The chromatin was subjected to immuno-precipitation using the following antibodies: anti-Nurr1 (Santa Cruz), anti-acetyl histone H3 (Ac-H3), anti-HDAC1, anti-CoREST (all from Upstate Biotechnology), anti-MeCP2 (Chemicon,), anti-Foxa2 (Cell signaling Technology), anti-Pitx3, and IgG (both from Abcam). Immuno-precipitated DNA fragments were collected by protein G magnetic beads. DNA/protein complexes were eluted from the beads and reverse cross-linked at 65° C. for 2 h in the presence of proteinase K. Purified DNA were subjected to real-time PCR using primers specific to rat TH promoter loci (referring to Table 2). The abundance of the immuno-precipitated DNA in a sample was normalized to the amount of signal in the input DNA. The values of the control samples were set to 1.0.

The mark [3] stands for this setting: SB, compared with the UCN effect.

On to `CCCC(=O)[O-].[Na+]` [SB, sodium butyrate, reference compound], for which the TH promoter activity result in assay [1] (0.5 mM SB) is recorded as “increase TH promoter activity”. Also, the “TH+ cell numbers” value in assay [2] (Nurr1-transduced cortical NPCs, SB, 3 days) is “increase in TH^+ cell numbers”. For the same compound, in the assay with rat TH promoter (setting [3]), the “Nurr1 recruitment at the TH promoter” value is “mimicked” and the “histone acetylation at the TH promoter” value is “mimicked”.
As to Urocortin [UCN], in assay [1] (1 μM UCN), the “TH promoter activity (relative luciferase activity)” value is listed as “activation of the TH promoter”. For the same compound, the “conversion of Nurr1+ cortical NPCs into DA neurons” value in assay [2] (0.5 μM UCN, 3 days) is given as “increased the conversion”. Further, the “TH+ cells expressing the mature DA neuron-specific marker DAT” value in assay [2] (Nurr1-transduced NPCs, 0.5 μM UCN, 4 days) was “almost all of TH^+ cells”. Also, in assay [2] (cortical NPCs transduced with GFP, 0.5 μM UCN, 3 days), the “TH+ cell numbers” value is on record as “do not change”. Further, the “TH+ cell numbers” value in assay [2] (cortical NPCs transduced with Nurr1, 0.5 μM UCN, 3 days) is recorded as “increase in TH^+ cell numbers”. The “Nurr1 protein occupancy at the TH promoter” value in the assay on rat TH promoter (1 μM UCN, 2 days) is recorded as “significantly increased”. In the assay with rat TH promoter (UCN), the “CoREST binding in the TH promoter regions” value is on record as “decreased CoREST binding”, the “Foxa2 occupancy at Nurr1 binding sites of TH promoter” value is given as “increases”, the “HDAC1 recruitment at the TH promoter” value was “significantly reduced” and the “histone H3 acetylation at TH promoter regions” value is listed as “significantly increased”. In addition, the “MeCP2 recruitment to the TH promoter” value in the assay with rat TH promoter (UCN, Nurr1-binding sites and repeated CpGs) is given as “significantly reduced”.
